In brackets after ≈: the same amount, converted by molar mass.
Tests used:
[1] = tested on: HDAC; set-up: method as in PMID 15808449, PMID 31201063; settings: cited from earlier work
[2] = tested on: A. sydowii DL1045; experiment: effect of SAHA on growth and fermentation of A. sydowii DL1045; type: cell-based, Aspergillus sydowii DL1045
Procedure: After A. sydowii DL1045 in rice extract culture medium was treated with three different histone deacetylase inhibitors, including suberoylanilide hydroxamic acid (SAHA), […] and nicotinamide, the fermentation status of the fungi was observed. […] The fermentation broth of A. sydowii DL1045 in the control group was dark green, whereas the fermentation broth in the 250 μM SAHA treatment group was golden yellow (Figure 1a,b). In addition, after 10 days, the weight of metabolites was 3.5 times lower in the SAHA group than in the control group (Figure S1, Supplementary Materials). […] This conjecture was confirmed by the results of scanning electron microscopy, and after 10 days of fermentation, the spores detached from the sporangium after maturation in the later stage of fermentation (Figure 1c).
A. sydowii DL1045 was retrieved from deep-sea mud sediment off the coast of Dalian, Liaoning Province, 121.55 °E and 38.88 °N, China. A. sydowii DL1045 was cultivated on potato dextrose agar (PDA) medium, consisting of 200 g/L of potato, 30 g/L of NaCl, 15 g/L of agar, and 20 g/L of dextrose and incubated for three days at 28 °C with 60% humidity. […]

[3] = tested on: A-549 cells; set-up: method as in PMID 18505285; settings: read-out: IC50 cytotoxicity against A-549 cells; cited from earlier work
[4] = tested on: α-glucosidase; set-up: method as in PMID 24436963; settings: cited from earlier work
[5] = biological target: T1, TCPTP (Homo sapiens, UniProt P17706); experiment: PTP inhibitory activity (p-NPP degradation), TCPTP; type: biochemical; settings: p-NPP substrate, 37 °C, 30 min, 405 nm; mean ± SD, n = 3
T1 construct: incubated at 37 °C with 2.5 μg domain protein
T1 sequence (P17706 5-275 limits assumed): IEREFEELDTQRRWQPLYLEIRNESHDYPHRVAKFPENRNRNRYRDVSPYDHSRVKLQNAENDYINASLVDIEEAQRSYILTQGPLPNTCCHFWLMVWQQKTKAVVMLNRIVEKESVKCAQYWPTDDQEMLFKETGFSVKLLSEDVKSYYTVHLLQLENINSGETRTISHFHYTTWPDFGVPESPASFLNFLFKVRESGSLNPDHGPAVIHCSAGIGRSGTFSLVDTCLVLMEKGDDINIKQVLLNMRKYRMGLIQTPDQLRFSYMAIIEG
Procedure: (§1) The diabetes-related PTPs (PTP1B, TCPTP, SHP1 and CD45) inhibitory activity of the tested compounds was measured as previously described. The compounds were dissolved in DMSO and incubated at 37 °C with 2.5 μg domain protein, 20 mM 3-(N-Morpholino) propanesulfonic (MOPS), 9 mM p-nitrophenyl phosphate (p-NPP), 50 mM NaCl and 50 mM DTT, pH 7.2. The reaction was performed in a 96-well plate (DMSO as blank control). The reaction was started by adding the assay buffer (50 mM citrate (pH 6.0), 0.1 M NaCl, 1 mM EDTA, and 1 mM dithiothreitol) with a final volume of 150 μL and incubated at 37 °C for 30 min and 10 M NaOH was added to terminate the reaction. The inhibition of PTPs by tested compounds was assessed by measuring the degradation of p-NPP at a wavelength of 405 nm.

[6] = biological target: T2, CD45 (Homo sapiens, UniProt P08575); experiment: PTP inhibitory activity (p-NPP degradation), CD45; type: biochemical; settings: p-NPP substrate, 37 °C, 30 min, 405 nm; mean ± SD, n = 3
T2 sequence (P08575 653-912 limits assumed): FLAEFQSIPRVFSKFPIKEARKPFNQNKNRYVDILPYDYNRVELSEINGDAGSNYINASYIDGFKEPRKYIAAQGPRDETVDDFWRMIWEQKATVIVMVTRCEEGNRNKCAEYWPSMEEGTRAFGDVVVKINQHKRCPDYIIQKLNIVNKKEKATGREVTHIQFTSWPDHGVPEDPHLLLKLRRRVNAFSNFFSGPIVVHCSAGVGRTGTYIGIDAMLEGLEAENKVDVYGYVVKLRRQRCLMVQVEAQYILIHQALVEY
Procedure: as §1

[7] = tested on: nematode; experiment: anti-nematode activity
[8] = tested on: two weeds; set-up: method as in PMID 11076561; settings: cited from earlier work
[9] = biological target: T3, SHP1 (Homo sapiens, UniProt P29350); experiment: PTP inhibitory activity (p-NPP degradation), SHP1; type: biochemical; settings: p-NPP substrate, 37 °C, 30 min, 405 nm; mean ± SD, n = 3
T3 construct: incubated at 37 °C with 2.5 μg domain protein
T3 sequence (P29350 244-515 limits assumed): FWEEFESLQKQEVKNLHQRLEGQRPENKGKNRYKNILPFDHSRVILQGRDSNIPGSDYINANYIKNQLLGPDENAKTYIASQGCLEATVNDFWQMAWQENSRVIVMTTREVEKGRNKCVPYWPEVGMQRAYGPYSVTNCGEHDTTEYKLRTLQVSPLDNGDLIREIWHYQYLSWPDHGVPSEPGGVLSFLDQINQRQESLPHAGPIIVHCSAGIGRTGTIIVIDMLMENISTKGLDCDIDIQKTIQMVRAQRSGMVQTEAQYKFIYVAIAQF
Procedure: as §1

[10] = biological target: T4, PTP1B (Homo sapiens, UniProt P18031); experiment: PTP inhibitory activity (p-NPP degradation), PTP1B; type: biochemical; settings: p-NPP substrate, 37 °C, 30 min, 405 nm; mean ± SD, n = 3
T4 construct: incubated at 37 °C with 2.5 μg domain protein
T4 sequence (P18031 3-277 limits assumed): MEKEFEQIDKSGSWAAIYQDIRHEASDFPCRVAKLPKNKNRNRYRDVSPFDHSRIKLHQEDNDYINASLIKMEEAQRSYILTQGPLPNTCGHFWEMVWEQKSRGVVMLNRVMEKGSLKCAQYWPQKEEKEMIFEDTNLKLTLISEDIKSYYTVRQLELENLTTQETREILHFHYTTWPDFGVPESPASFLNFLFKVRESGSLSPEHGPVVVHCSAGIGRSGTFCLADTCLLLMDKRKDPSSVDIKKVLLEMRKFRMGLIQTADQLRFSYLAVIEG
Procedure: as §1

[11] = tested on: K. pneumonia; set-up: method as in PMID 24736857; settings: cited from earlier work
[12] = tested on: Staphylococcus aureus; set-up: method as in PMID 32449250; settings: cited from earlier work

Compound	IC50 [5]	IC50 [6]	IC50 [7]	IC50 [9]	IC50 [10]	also measured
COC(=O)CCCCCCC(=O)Nc1ccccc1 [Compound S1, methyl 8-oxo-8-(phenylamino) octanoate]						HDAC inhibitory activity [1]: displayed HDAC inhibitory activity
O=C(CCCCCCC(=O)Nc1ccccc1)NO [SAHA, suberoylanilide hydroxamic acid]						effect on mycelial growth and spore germination ([2]; 250 μM SAHA, 10 days, scanning electron microscopy): inhibited mycelial growth and spore germination; weight of metabolites, times lower in SAHA group than in control group ([2]; after 10 days, ethyl acetate extract (Figure S1)): 3.5 times
14-hydroxyterezine D						IC50 [3]: 7.31 µM
COc1ccc([C@H]2N[C@H](CO)[C@@H](O)[C@@H]2O)cc1O [Compound A7, radicamine A]						α-glucosidase inhibitory activity [4]: exhibit α-glucosidase inhibitory activity
Cc1cc(O)cc(OC(=O)c2c(C)cc(O)cc2O)c1 [Compound A9, lecanorin]	> 20 µM	7.4 ± 0.08 µM	> 100 µM	6.01 ± 0.18 µM	7.6 ± 0.21 µM	inhibition of radicle growth and germination of two weeds [8]: markedly inhibited the radicle growth and germination of the two weeds
COc1ccc2c(c1)NC(=O)[C@@]21C=C2C(=O)N3CCC[C@H]3C(=O)N2[C@H]1C=C(C)C [6-methoxyspirotryprostatin B]						IC50 [3]: 8.29 µM
O=C(O)CCCCCCC(=O)Nc1ccccc1 [Compound S2, suberanilic acid]						HDAC inhibitory activity [1]: displayed HDAC inhibitory activity
Cc1cc(Oc2cc(O)cc(C)c2C(=O)O)cc(O)c1C(=O)O [Compound A13, diorcinol acid]	> 20 µM	4.46 ± 0.16 µM	> 100 µM	2.16 ± 0.23 µM	> 20 µM	
C/C(=C/CCC(C)C)c1ccc(CO)cc1O [(Z)-5-(Hydroxymethyl)-2-(6′) methylhept-2′-en-2′-yl)-phenol, reference compound]						MIC against K. pneumonia [11]: 10.7 mM (≈ 2510 µg/mL)
C/C(=C\CCC(C)C)c1ccc(CO)cc1O [Compound A4, aspergillusene A]	> 20 µM	> 20 µM	> 100 µM	8.69 ± 0.26 µM	9.65 ± 0.73 µM	MIC against K. pneumonia [11]: 21.4 mM (≈ 5010 µg/mL)
Cc1cc(O)cc(Oc2cc(C)cc(O)c2)c1 [Compound A3, diorcinol]	> 20 µM	4.03 ± 0.13 µM	50 µM	0.96 ± 0.02 µM	> 20 µM	MIC against K. pneumonia [11]: 21.7 mM (≈ 5000 µg/mL)
COC(=O)/C=C/c1cc(OC)c(OC)c(OC)c1 [Compound A6, methyl trimethoxycinnamate]						inhibitory activity against Staphylococcus aureus [12]: showed inhibitory activity against Staphylococcus aureus
COc1ccc2c(C[C@@H]3NC(=O)[C@@H]4CCCN4C3=O)c(C(=O)C=C(C)C)[nH]c2c1 [18-oxotryprostatin A]						IC50 [3]: 1.28 µM

From PMC10856041, “Chemical Epigenetic Regulation Secondary Metabolites Derived from Aspergillus sydowii DL1045 with Inhibitory Activities for Protein Tyrosine Phosphatases” (Molecules, 2024)
